These results are taken from BindingDB's records for doi:10.1021/acs.jmedchem.7b01490 (Astrazeneca, 2018).

The nature of this experiment: Inhibition of CHK1 in human HT29 cells assessed as abrogation of camptothecin-induced G2/M phase arrest.

The term EC50 denotes the concentration needed to bring the measured effect to its halfway point. As to `NC(=O)c1cnc(N[C@H]2CCCNC2)c2cc(-c3ccsc3)sc12`, the EC50 turned out to be 10 nM.
`NC(=O)c1ccc(N[C@H]2CCCNC2)c2cc(-c3ccccc3)[nH]c12`: the half-maximal effective concentration (EC50) is 53 nM.
Regarding `NC(=O)c1cnc(N[C@H]2CNCC[C@@H]2O)c2cc(-c3ccccc3)sc12`, the EC50 came out at 410 nM.
Consider `CCN(c1ncc(C(N)=O)c2sc(-c3ccccc3)cc12)[C@H]1CCCNC1`, for which the half-maximal effective concentration (EC50) is 110 nM.
For `NC(=O)c1cnc(N[C@H]2CCCNC2)c2cc(-c3cnn(Cc4ccccc4)c3)sc12`, the EC50 is 60 nM.
The value for `NC(=O)c1cnc(N[C@H]2CCCNC2)c2cc(-n3ccnc3)sc12` was 10000 nM; that for `NC(=O)c1ccc(N[C@H]2CCCNC2)c2cc(-c3ccc(F)cc3)[nH]c12` was 40 nM.
In the case of `CN1CCC[C@H](Nc2ncc(C(N)=O)c3sc(-c4ccccc4)cc23)C1`, the EC50 was determined as 880 nM.
The figure for `C[C@@H]1CC[C@H](Nc2ncc(C(N)=O)c3sc(-c4ccccc4)cc23)CN1` is 30 nM.
For the molecule `NC(=O)c1cnc(N[C@H]2CCCNC2)c2cc(-c3cn[nH]c3)sc12`, the concentration giving a half-maximal response (EC50) is 2300 nM.
On to `NC(=O)c1cnc(N[C@H]2CCCNC2)c2cc(-c3cccs3)sc12`, for which the half-maximal effective concentration (EC50) worked out at 12 nM.
The value for `NC(=O)c1ccc(N[C@H]2CCCNC2)c2cc(-c3ccc(Cl)cc3)[nH]c12` was 70 nM; that for `NC(=O)c1cnc(N(CCO)[C@H]2CCCNC2)c2cc(-c3ccccc3)sc12` was 3700 nM.
The value for `NC(=O)c1cnc(SC2CCCNC2)c2cc(-c3ccccc3)sc12` (stereo not given) was 210 nM; that for `NC(=O)c1ccc(N[C@H]2CCCNC2)c2cc(-c3cccc(F)c3)[nH]c12` was 30 nM; that for `C[C@H]1NCCC[C@@H]1Nc1ncc(C(N)=O)c2sc(-c3ccccc3)cc12` was 8 nM.
On to `NC(=O)c1cnc(N[C@H]2CCCNC2)c2cc(-c3cccc(F)c3)sc12`, for which the EC50 worked out at 24 nM.
Take `CN(c1ncc(C(N)=O)c2sc(-c3ccccc3)cc12)[C@H]1CCCNC1`: the 50% effective concentration (EC50) was 840 nM.
Consider `C[C@@H]1CC[C@H](Nc2ncc(C(N)=O)c3sc(-c4ccccc4)cc23)[C@H](C)N1`, for which the concentration for a half-maximal effect (EC50) stood at 10 nM.
The figure for `C[C@@H]1NCCC[C@@H]1Nc1ncc(C(N)=O)c2sc(-c3ccccc3)cc12` is 50 nM; for `NC(=O)c1cnc(N[C@H]2CCCN[C@@H]2CCO)c2cc(-c3ccccc3)sc12` it is 3300 nM; for `NC(=O)c1cnc(N[C@H]2CCCNC2)c2cc(-c3ccccc3)sc12` [(S)-2-phenyl-4-(piperidin-3-ylamino)thieno[3,2-c]pyridine-7-carboxamide] it is 26 nM.
The figure for `NC(=O)c1cnc(O[C@H]2CCCNC2)c2cc(-c3ccccc3)sc12` is 340 nM; for `Cn1cc(-c2cc3c(N[C@H]4CCCNC4)ncc(C(N)=O)c3s2)cn1` it is 150 nM; for `NC(=O)c1cnc(N[C@H]2CCCNC2)c2cc(-c3ccccc3)oc12` it is 390 nM.
